These results are taken from PubChem BioAssay AID623927 (Vanderbilt Specialized Chemistry Center, 2012).

A short description of one assay: PubChem AID 623927. As to conditions: Ricerca radioligand binding panel, 10 uM, % inhibition, stronger effect = higher value.
Assay [1] has as its target Sodium-dependent serotonin transporter (Homo sapiens) (UniProt P31645). Briefly: PubChem AID 623927. As to conditions: Ricerca radioligand binding panel, 10 uM, % inhibition; serotonin transporter SERT binding; stronger effect = higher value.
The subject of assay [2] is norepinephrine transporter (NET) [Homo sapiens]. Briefly: PubChem AID 623927. As to conditions: Ricerca radioligand binding panel, 10 uM, % inhibition; stronger effect = higher value.
Assay [3] has as its target 5-hydroxytryptamine receptor 1A (Homo sapiens) (UniProt P08908). As to the kind of experiment: PubChem AID 623927. As to conditions: Ricerca radioligand binding panel, 10 uM, % inhibition; serotonin 5-HT1A binding; stronger effect = higher value.
Assay [4] has as its target Adenosine receptor A1 (Homo sapiens) (UniProt P30542). As to the kind of experiment: PubChem AID 623927. As to conditions: Ricerca radioligand binding panel, 10 uM, % inhibition; adenosine A1 binding; stronger effect = higher value.
The target in assay [5] is Alpha-1A adrenergic receptor (Homo sapiens) (UniProt P35348). As to the kind of experiment: PubChem AID 623927. As to conditions: Ricerca radioligand binding panel, 10 uM, % inhibition; adrenergic alpha1A binding; stronger effect = higher value.
The target of assay [6] is Voltage-gated inwardly rectifying potassium channel KCNH2 (Homo sapiens) (UniProt Q12809). Briefly: PubChem AID 623927. As to conditions: Ricerca radioligand binding panel, 10 uM, % inhibition; hERG channel binding; stronger effect = higher value. (In general: The hERG channel carries a current that helps repolarise heart muscle cells.)
Assay [7] deals with Sodium-dependent dopamine transporter (Homo sapiens) (UniProt Q01959). As to the kind of experiment: PubChem AID 623927. As to conditions: Ricerca radioligand binding panel, 10 uM, % inhibition; dopamine transporter DAT binding; stronger effect = higher value.
In assay [8] the target is Sigma non-opioid intracellular receptor 1 (Homo sapiens) (UniProt Q99720). As to the kind of experiment: PubChem AID 623927. As to conditions: Ricerca radioligand binding panel, 10 uM, % inhibition; sigma 1 receptor binding; stronger effect = higher value.

SMILES strings stand for the structures.

In the case of `O=C(Nc1cccc(Cl)c1)c1ccccn1`, the inhibition in “PubChem AID 623927” (NMDA agonist site binding) turned out to be 15%; in the assay “PubChem AID 623927” (NMDA phencyclidine site binding) it was 15%; in “PubChem AID 623927” (phorbol ester binding), 21%; in the assay “PubChem AID 623927” (rolipram site (PDE4) binding), 17%; in “PubChem AID 623927” (sigma 2 receptor binding), 15%; in assay [1], 12%. The inhibition in assay [3] was 16%; in assay [4], 17%; in [5], 16%; in assay [6], 0%; in [7], 31%; in assay [8] it was 27%. In assay [2], the inhibition of NET radioligand binding was 80%.

Usually inhibition stands for the percentage by which the read-out fell short of the control.
